# In US10980901B2, “Treatment of PMSA expressing cancers” (THE EUROPEAN ATOMIC ENERGY COMMUNITY (EURATOM), REPRESENTED …, priority 2016, dated 2021):
# What was measured:
# [1] = Toxicity monitored by blood sampling and clinical side effects, patient cohorts; type: in vivo, patients; settings: patient cohort; for change in thrombocyte or white blood cell count: during therapy; for dysfunction of salivary glands: reported side effect; for tolerability of the treatment: lab tests every 4 weeks, clinical side effects every 8 weeks
# Description: Toxicity was monitored by blood sampling.
# Hematologic response was evaluated every 4 weeks per lab tests and clinical side effects were monitored every 8 weeks.
# [2] = Laboratory test follow-up and side effects of individual mCRPC patients A and B; type: in vivo
# From the text: After each cycle, the blood cell count and alkaline phosphatase level were checked every 2 week. The platelet level never dropped below 100/n1 (grade 1 according to the Common Terminology Criteria for Adverse Events, version 4.0), the total white blood cell count never dropped below 2.5/n1 (grade 1), and the hemoglobin level never dropped below 9.5 g/dl (grade 2) (FIG. 13A). […] A concordant decline in PSA level and alkaline phosphatase level (FIG. 13B) further underlined the excellent treatment response.
# (§1) Patient B was initially treated with Lu-177-PSMA-617 (7.4 GBq per cycle), which was offered as salvage therapy. The initial PSA level was 294 ng/ml. […] Therapy was changed to Ac-225-PSMA-617, and the patient received 3 cycles of 6.4 MBq (100 kBq per kilogram of body weight) at bimonthly intervals.
# [3] = test system: PSMA expressing cancers; assay: Treatment response monitored by PSA values in blood, patient cohorts; type: in vivo, patients; settings: for patients in PSA response / patients in PSA response (percentage): at week-24
# Description: 20 Patients were treated 3 times with activities of 100 kBq/kg body weight of Ac-225-PSMA-617 in two month intervals.
# Treatment response was monitored by PSA values in blood and with PET/CT (positron emission tomography-computed tomography) with Ga-68-PSMA-HBED-CC (also called Gallium-68-PSMA11) before therapy and after the third therapy.
# Experiments have been conducted to compare the efficiency of the Ac-225-radiopharmaceuticals as used in the present invention, such as Ac-225-PSMA-617, with that of non-Ac-225-radiopharmaceuticals comprising the same targeting compound, but chelated e.g. with Lu-177, such as a radionuclide Lu-177-PSMA-617.
# [4] = test system: metastatic castration-resistant prostate cancer (mCRPC); assay: Treatment of individual mCRPC patients A and B: PSA level and PSMA PET/CT restaging; type: in vivo
# Description: Clinical Course of Patient A presented with diffuse red marrow infiltration of mCRPC (this physical condition was considered a contraindication for treatment with β-emitters). Patient A was treated with 3 cycles of 9-10 MBq (100 kBq per kilogram of body weight) of Ac-225-PSMA-617 at bimonthly intervals.
# as §1
# [5] = test system: PSMA expressing cancers; assay: Treatment response monitored by PSA values in blood, patient cohorts; type: in vivo, patients; settings: comparative example
# [6] = patient A, checked every 2 week after each cycle
# [7] = eight weeks after the first treatment cycle, 20 patients, 100 kBq/kg body weight
# [8] = sixteen weeks after the first treatment cycle, 20 patients, 100 kBq/kg body weight
# [9] = twenty-four weeks after the first treatment cycle, 20 patients, 100 kBq/kg body weight
# [10] = patient A, after additional 6 MBq consolidation therapy
# [11] = 30 patients, eight weeks after the first treatment cycle
compound,measurement,setting,value
"O=C(O)CCC(NC(=O)NC(CCCCNC(=O)C(Cc1cccc2ccccc12)NC(=O)C1CCC(CNC(=O)CN2CCN(CC(=O)O)CCN(CC(=O)O)CCN(CC(=O)O)CC2)CC1)C(=O)O)C(=O)O (stereo not shown) [Ac-225-PSMA-617, metal not drawn]",change in thrombocyte or white blood cell count,[1],no significant change
same,dysfunction of salivary glands,[1],Several patients reported dysfunction of salivary glands
same,tolerability of the treatment,[1],well tolerated
same,clinically reported side effect,[2]; patient A,Moderate but enduring dysfunction of salivary glands
same,"hemoglobin level, CTCAE grade",[2]; patient A,grade 2
same,"platelet level, grade according to Common Terminology Criteria for Adverse Events, version 4.0",[2]; patient A,grade 1
same,"total white blood cell count, CTCAE grade",[2]; patient A,grade 1
same,hematologic toxicity (blood cell count),"[2]; patient A, FIG. 13A",moderate hematologic toxicity
same,hemoglobin level (lowest),[2]; [6],≥ 9.5 g/dL
same,platelet level (lowest),[2]; [6],≥ 100 /n1
same,total white blood cell count (lowest),[2]; [6],≥ 2.5 /n1
same,reported side effect,[2]; patient B,severe dysfunction of salivary glands
same,hematologic toxicity (laboratory tests),"[2]; patient B, 3 cycles of 6.4 MBq",no relevant hematologic toxicity
same,patients in PSA response,[3],15/28
same,patients in PSA response (percentage),[3],54%
same,patients with decrease in PSA >25%,[3]; [7],17 patients
same,patients with decrease in PSA >50%,[3]; [7],12 patients
same,patients presenting a decrease in PSA,"[3]; eight weeks after the first treatment cycle, 20 patients, 100 kBq/kg body weight, 3 times in two month intervals",19/20
same,patients presenting a decrease in PSA,[3]; [8],15/20
same,patients with decrease in PSA >50%,[3]; [8],14 patients
same,patients presenting a decrease in PSA,[3]; [9],15/20
same,patients with decrease in PSA >50%,[3]; [9],12 patients
same,"tumor markers (PSA, alkaline phosphatase)","[4]; patient A, FIG. 13B",Decline of tumor markers to none measurable or reference range
same,PSA level,[4]; [10],less than 0.1 ng/ml
same,imaging response,[4]; [10],complete imaging response
same,previously PSMA-positive lesions on PSMA PET/CT,"[4]; patient A, two months after 3 cycles of 9-10 MBq (100 kBq/kg) at bimonthly intervals",visually disappeared
same,PSA level,"[4]; patient A, two months after 3 cycles of 9-10 MBq, dropped from more than 3,000 ng/ml",0.26 ng/mL
same,restaging based on PSMA PET/CT,"[4]; patient B, after 2 cycles of 6.4 MBq (100 kBq/kg) at bimonthly intervals, after failed Lu-177-PSMA-617",partial response
same,restaging based on PSMA PET/CT,"[4]; patient B, after 3 cycles of 6.4 MBq (100 kBq/kg) at bimonthly intervals",complete remission
same,PSA level,"[4]; patient B, after 3 cycles of 6.4 MBq, below the measurable level",< 0.1 ng/mL
same,restaging on 68-Ga-PSMA-11 PET/CT,"[4]; patient B, after second and third cycles, FIG. 14C, 14D",impressive response
"O=C([O-])CN1CCN(CC(=O)[O-])CCN(CC(=O)NCC2CCC(C(=O)N[C@@H](Cc3ccc4ccccc4c3)C(=O)NCCCC[C@H](NC(=O)N[C@@H](CCC(=O)O)C(=O)O)C(=O)O)CC2)CCN(CC(=O)[O-])CC1.[177Lu+3] (stereo partly shown) [Lu-177-PSMA-617, reference compound]",change in thrombocyte or white blood cell count,[1],no significant change
same,dysfunction of salivary glands,[1],Mild moderate dysfunction of salivary glands
same,tolerability of the treatment,[1],well tolerated
same,patients presenting a decrease in PSA,[5]; [11],21/30
same,patients with decrease in PSA >50%,[5]; [11],16 patients
same,patients presenting a decrease in PSA,"[5]; 30 patients, twenty-four weeks after the first treatment cycle, some patients dropped out",9/30
same,patients with decrease in PSA >50% among those with PSA decrease,[5]; twenty-four weeks after the first treatment cycle,all of them
same,patients in PSA response,[3],9/30
same,patients in PSA response (percentage),[3],30%
same,response rate in comparison to Ac-225-PSMA-617 group,[3]; comparison of treated groups,lower response rate
same,"lesions on PSMA PET/CT, restaging","[4]; patient B, after 2 cycles of Lu-177-PSMA-617",tumor progression
same,PSA level,"[4]; patient B, after cycle 2, 7.4 GBq per cycle, initial PSA level 294 ng/ml",419 ng/mL
